Test results published in patent EP0574992A1, “5-(1,2,4-Triazol-1-ylmethyl)-3H-isobenzofuran-1-one derivatives, their preparation and use as aromatase inhibitors” (GLAXO GROUP LIMITED, priority 1992, dated 1993).

system: mouse; assay: Acute toxicity study, single oral doses; assay type: in vivo; settings: single doses up to 2g/kg p.o.

| SMILES | Acute toxicity (tolerability) |
| --- | --- |
| CC1(C)OC(=O)c2ccc(C(c3c(F)cc([N+](=O)[O-])cc3F)n3cncn3)cc21 (racemic) [Example 1, 5-[(2,6-Difluoro-4-nitrophenyl)-1,2,4-triazol-1-ylmethyl]-3,3-dimethyl-3H-isobenzofuran-1-one] | well tolerated |

biological target: T1, human placental aromatase (Homo sapiens, UniProt P11511); assay: Human placental aromatase assay ([3H]-H2O release), in vitro; assay type: biochemical; settings: 1 mM NADPH, read-out: Aromatase inhibitory activity - in vitro IC₅₀
T1 construct: Human placental aromatase was assayed according to the method of Thomson and Siiteri; from tissue; host or cells: human placenta
T1 sequence (P11511 1-503): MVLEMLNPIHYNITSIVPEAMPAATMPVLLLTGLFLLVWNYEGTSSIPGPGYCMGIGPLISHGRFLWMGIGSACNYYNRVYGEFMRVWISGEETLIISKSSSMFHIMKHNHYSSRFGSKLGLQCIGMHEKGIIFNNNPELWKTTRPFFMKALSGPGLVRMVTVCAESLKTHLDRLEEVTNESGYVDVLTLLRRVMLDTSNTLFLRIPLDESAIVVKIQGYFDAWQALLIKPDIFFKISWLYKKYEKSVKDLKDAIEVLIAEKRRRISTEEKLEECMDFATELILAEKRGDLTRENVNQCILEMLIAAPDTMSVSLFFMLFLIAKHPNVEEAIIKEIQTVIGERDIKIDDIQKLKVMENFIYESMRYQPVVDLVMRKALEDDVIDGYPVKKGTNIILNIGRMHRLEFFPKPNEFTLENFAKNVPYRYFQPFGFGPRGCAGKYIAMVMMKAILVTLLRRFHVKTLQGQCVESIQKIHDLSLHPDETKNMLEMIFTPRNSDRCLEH
Description: Aromatase inhibitory activity may be determined using human placental aromatase.
Human placental aromatase was assayed according to the method of Thomson and Siiteri, Hormone Res. (1979) 11:179-185, except that the assay buffer contained 1 mM NADPH instead of the NADPH-generating system. [³H]-H₂O, released as a by-product of aromatization, was separated from substrate using C18 mini-columns.

| IC50 [nM] | SMILES |
| --- | --- |
| 73 | CC1(C)OC(=O)c2ccc(C(c3ccc(C#N)cc3)n3cncn3)cc21 (racemic) [Example 7, 4-[(3,3-Dimethyl-1-oxo-1,3-dihydro-isobenzofuran-5-yl)-1,2,4-triazol-1 - ylmethyl]-benzonitrile] |
| 63 | CC1(C)OC(=O)c2ccc(C(c3ccc([N+](=O)[O-])cc3F)n3cncn3)cc21 (stereo not shown) [Example 2, 5-[(2-Fluoro-4-nitrophenyl)-1,2,4-triazol-1-ylmethyl]-3,3-dimethyl-3H-isobenzofuran-1-one] |
| 24 | CC1(C)OC(=O)c2ccc(C(c3c(F)cc(C#N)cc3F)n3cncn3)cc21 (stereo not shown) [Example 3, 4-[(3.3-Dimethyl-1-oxo-1,3-dihydro-isobenzofuran-5-yl)-1,2,4-triazol-1-ylmethyl]-3,5-difluorobenzonitrile] |
| 51 | CC1(C)OC(=O)c2ccc(C(c3ccc([N+](=O)[O-])cc3)n3cncn3)cc21 (stereo not shown) [Example 5, 5-[(4-Nitrophenyl)-1,2,4-triazol-1-ylmethyl]-3,3-dimethyl-3H-isobenzofuran-1-one] |
| 83 | CC1(C)OC(=O)c2ccc(C(c3ccc(C#N)cc3F)n3cncn3)cc21 (stereo not shown) [Example 6, 4-[(3,3-Dimethyl-1-oxo-1,3-dihydro-isobenzofuran-5-yl)-1,2,4-triazol-1 - ylmethyl]-3-fluorobenzonitrile] |

| SMILES | IC50 [nM] |
| --- | --- |
| CC1(C)OC(=O)c2ccc(C(c3c(F)cc([N+](=O)[O-])cc3F)n3cncn3)cc21 (racemic) [Example 1, 5-[(2,6-Difluoro-4-nitrophenyl)-1,2,4-triazol-1-ylmethyl]-3,3-dimethyl-3H-isobenzofuran-1-one] | 15 |
